Measured values published in publication PMC5400620, “Preclinical therapeutic efficacy of a novel blood-brain barrier-penetrant dual PI3K/mTOR inhibitor with preferential response in PI3K/PTEN mutant glioma” (Oncotarget, 2017).
Read-outs that look alike come from different tables or passages of the source.

How the values were obtained:
[1] = biological target: T1, never-in-mitosis gene a (NIMA)-related kinase 2 (NEK2) (Homo sapiens, UniProt P51955); experiment: kinase panel, direct measurement of substrate phosphorylation, NEK2; type: biochemical; conditions: panel of 227 kinases; test concentration not given
T1 sequence (P51955 1-445): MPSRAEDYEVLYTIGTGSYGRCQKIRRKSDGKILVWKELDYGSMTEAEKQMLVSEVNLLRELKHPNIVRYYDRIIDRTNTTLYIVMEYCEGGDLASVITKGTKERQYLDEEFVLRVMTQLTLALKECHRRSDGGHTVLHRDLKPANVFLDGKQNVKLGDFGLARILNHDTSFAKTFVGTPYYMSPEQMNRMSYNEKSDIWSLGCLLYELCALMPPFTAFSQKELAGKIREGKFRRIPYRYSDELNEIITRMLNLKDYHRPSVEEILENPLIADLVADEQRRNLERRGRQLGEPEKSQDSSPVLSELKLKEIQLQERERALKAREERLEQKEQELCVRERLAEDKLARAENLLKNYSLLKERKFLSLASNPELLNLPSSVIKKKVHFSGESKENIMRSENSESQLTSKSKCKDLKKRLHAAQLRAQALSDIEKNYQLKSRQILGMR
Protocol: DS7423 inhibits PI3K/mTOR activity likely binding to the ATP binding cleft of these enzymes and was tested against class I PI3K and other kinases using an HTRF assay format and direct measurement of substrate phosphorylation, respectively.

[2] = tested on: PI3K/mTOR signaling (pAkt, pS6); experiment: pAkt and pS6 in U87 tumors or brain after a single PO dose; type: in vivo, mice; conditions: single PO dose 6 mg/kg, compared with untreated animals
Protocol: Figure 1 A. and B. Plasma and brain concentration-time profile of DS7423 following a single PO administration (6 mg/kg) to nude mice. C. Western blot of mouse brains probed with antibodies against pAkt (Ser473) and pS6 (Ser235/236) in a time profile similar to that shown in A and B. Results are presented as the mean ± SE of six animals in each group.
To correlate DS brain concentration with the modulation of PI3K/mTOR signaling in U87 tumors, we used immunohistochemical analysis to study the signaling alterations in tumor sections derived from mice at similar time points following a single PO dose of DS (6 mg/kg). Tissue sections were probed with antibodies against pAkt and pS6. […] DS plasma and brain concentrations decreased after 24 hours, which correlated with an increase in pAkt and pS6.

[3] = tested on: glioma cell lines and GICs; experiment: CellTiter-Blue cell viability assay, 72 hours; type: cell-based; conditions: Homo sapiens
Protocol: To determine the cytotoxicity of DS in GBM cells and GICs in vitro, we used a colorimetric […] assay. […] To investigate the role of PI3K/PTEN, we expressed PTEN in PTEN-mutant U87 glioma cells.
A panel of GIC lines was treated with various concentrations of DS. Cells were treated with increasing concentrations of DS in triplicate wells for 72 hours, and cell viability was assessed by a CellTiter-Blue assay. The results shown are from a single experiment with three independent replicates. The graph depicts cell viability at 72 hours. Cell viability in the vehicle control was considered to be 100%.
Nine well characterized GBM cell lines and 22 patient-derived GIC lines (provided by Drs. Frederick. F. Lang and Erik. P. Sulman, Brain Tumor center, M. D. Anderson Cancer Center) with various P53, PIK3CA, and PTEN statuses were used for this study. GBM cells were maintained as monolayer cultures and GICs were cultured as GBM neurospheres in DMEM/F12 medium containing B27 supplement (Invitrogen, Grand Island, NY) and basic fibroblast growth factor, and epidermal growth factor (20 ng/ml each).
The antiproliferative effect of DS on cells growing in culture was determined using the CellTiter-Blue (Promega, Madison, WI) viability assay. […]

LN229 = LN229 intracranial model efficacy; type: in vivo; conditions: LN229 tumor-bearing mice, PTEN wild type
Protocol: We studied the efficacy of DS in 2 intracranial tumor models; the U87 glioma cell line and the GSC11 glioma initiating cell line are both PTEN mutant and GSC-11 is PIK3CA mutant cells. The median survival time of the U87 tumor-bearing control mice (i.e., those injected with methylcellulose only) was 30 days, whereas the median survival time of the U87 tumor-bearing mice orally treated with 6 mg/kg of DS was 46 days (Figure 4A; P=0.025). The median survival of the GSC11 tumor-bearing mice orally treated with 6 mg/kg of DS was 61 days (Figure 4B; P=0.014) compared with 47 days for the control-treated mice. The in vivo therapeutic efficacy of DS was assessed by plotting the Kaplan-Meier survival curves of the animals, and group data were compared using the log-rank test (Figure 4A and 4B). […] We also studied LN229 a PTEN wild type cell line to study the efficacy of DS in intracranial model.

Akt phosphorylation = experiment: Western blot of PI3K signaling proteins in glioma cells; type: cell-based, human; conditions: 200 nM DS
Protocol: The levels of PI3K/mTOR signaling proteins, including pAkt, pS6 and P4EBP1 decreased in a dose- and time-dependent manner in all tested glioma cells (Figure 2A and 2B) as well as in the glioma tumor-initiating cell line GSC11 (Figure 2A and 2B). DS suppression of pAkt caused subsequent effects on Akt effectors such as 4EBP1 and S6 at 200-nM concentrations, and the maximum effects on Akt phosphorylation were observed 8 hours after 200 nM DS treatment.
Figure 2 DS7423 suppresses the PI3K signaling pathway in a dose- or time-dependent manner A. and B. Western blotting was performed to analyze the cellular protein levels of PI3K signaling proteins in U87 and LN229 glioma cells and GSC11 GICs. Cells were treated with the indicated doses of DS7423 for the indicated time intervals. DS7423 inhibited phosphorylation of the PI3K signaling components pAKT, pS6, and p4EBP1 in a time-dependent manner. D. Cells treated with the indicated doses of DS7423 for 24 hours. DS7423 inhibited phosphorylation of the PI3K signaling components pAKT, pS6, and p4EBP1 in a dose-dependent manner.
Cells were incubated with DS and then harvested and extracts were prepared for immunoblotting analysis. […]

[4] = tested on: glioma cell lines U87 and U251; experiment: cell viability with DS, TMZ and the combination; type: cell-based; conditions: Homo sapiens, U-251, TMZ 200 μM, DS 200 nM, alone or combined
Protocol: To investigate the ability of DS to modify the response of glioma cells to TMZ treatment, we evaluated the effects of TMZ (200 μM) alone, DS (200 nM) alone, and a combination of both TMZ and DS on the viability of the glioma cell lines U87 and U251 (Figure 5A).
The antiproliferative effect of DS on cells growing in culture was determined using the CellTiter-Blue (Promega, Madison, WI) viability assay. The mean drug concentration required to inhibit cell proliferation by 50% (IC50) compared with vehicle-treated controls was calculated using CalcuSyn Version 2.0 software (Great ShelfordCambridge, United Kingdom).

## CC(=O)N1CCN(c2nc3c(N4CCOCC4)nc(-c4cnc(N)nc4)nc3n2CC(F)(F)F)C[C@H]1C [DS, 1-{(2R)-4-[2-(2-Aminopyrimidin-5-yl)-6-(morpholin-4-yl)-9-(2,2,2-trifluoroethyl)-9H-purin-8-yl]-2-methylpiperazin-1-yl}ethan-1-one]
[1]
  inhibition of NEK2: greater than 50%
[2]
  pAkt and pS6 staining in U87 tumors: marked reduction
[3]; Glioma cell, GBM cells and GICs, 72 hours exposure, read-out: half maximal inhibitory concentration range of cells considered sensitive
  IC50: 150 to 265 nM
[3]; 9 glioma cell lines and 22 GIC lines, 72 hours, read-out: mean 50% inhibitory concentration, growth of glioma tumor cell lines and GICs
  IC50: < 250 nM
LN229
  effect on median survival: no effect on median survival
Akt phosphorylation
  time of maximum effects on Akt phosphorylation: 8 h
[4]
  viability at 0.2 µM: 63%
